According to PMC10988555, “Exploiting Co(III)-Cyclopentadienyl Complexes To Develop Anticancer Agents” (Inorganic Chemistry, 2024):

Tests used:
[1] = tested on: A2780 (human ovarian carcinoma) cell line; assay: Antiproliferative activity, MTS assay, A2780; assay type: cell-based; details: for IC50: 48 h exposure, MTS assay; for Selectivity index (SI), A2780: IC50 fibroblasts/IC50 A2780, values with * calculated taking fibroblast IC50 as 100 μM (minimal value)
Experimental: (§1) Human colorectal carcinoma cell line (HCT116), human breast cancer cell lines (MDA-MB-231 and MCF-7), and normal human primary dermal fibroblasts neonatal (PCS-201-010) cell line were grown in DMEM (Dulbecco’s modified Eagle’s medium) (Invitrogen Corp., Grand Island, NY, USA) supplemented with 10% (v/v) fetal bovine serum and 1% (v/v) antibiotic/antimycotic solution (Invitrogen Corp.). The human ovarian carcinoma (A2780) cell line was cultivated using RPMI (Roswell Park Memorial Institute) medium supplemented as in DMEM medium. The supplemented medium is named a complete medium. Cells were grown in an incubator with a humidified atmosphere at 5% (v/v) CO2 and 37 °C. All cell lines were purchased from ATCC (ATCC, American Type Culture Collection).
(§2) The evaluation of the cytotoxic potential of complexes 1–4 was obtained through in vitro measurements of the antiproliferative activity of these complexes. Cells were plated in 96-well plates at 7.5 × 10^4 cells/mL and incubated at 37 °C with 5% (v/v) CO2. After 24 h, the culture medium was replaced with fresh medium (100 μL) containing 0.1–50 μM of the different complexes and incubated for 48 h in tumor cell lines or containing 0.1–100 μM of the different complexes and incubated for 48 h in fibroblasts. […] The fibroblast cell line was used as a control of the cytotoxicity of the complexes for healthy cells. Cell viability was evaluated using Cell Titer 96 Aqueous Non-Radioactive Cell Proliferation Assay (Promega, Madison, WI, USA) using 3-(4,5-dimethylthiazol-2-yl)-5-(3-carboxymethoxyphenyl)-2-(4-sulfophenyl)-2H-tetrazolium inner salt (MTS), as described previously.[60] In metabolically active cells, enzymes present in the mitochondria catalyze a reaction in which NADPH/NADH is produced. These enzymes reduce the MTS reagent into a brownish product, Formazan, which can be quantified by measuring the absorbance at 490 nm. The quantity of formazan produced is directly proportional to the number of viable cells in the culture. This quantification was executed with a Biorad microplate reader Model 680 (Bio-Rad, Hercules, CA, USA). Half maximal inhibitory concentration (IC50) was calculated using GraphPad Prism 6 (GraphPadSoftware). We have calculated the ratio between the IC50 of fibroblasts and the IC50 of HCT116, A2780, MDA-MB-231, or MCF-7 cell lines for complexes 1–4 that was named herein as the Selectivity index (SI). To ensure the solubility of the complexes in all biological assays, complex solutions were freshly prepared and well solubilized before addition to the cells.

[2] = tested on: MCF-7 (human breast cancer) cell line; assay: Antiproliferative activity, MTS assay, MCF-7; assay type: cell-based; details: for IC50: 48 h exposure, MTS assay
Experimental: as §1, §2

[3] = tested on: BAX and BCL-2 proteins in A2780 cell line; assay: BAX and BCL-2 protein expression by Western blot; assay type: cell-based, human; details: A2780, IC50, 48 h, normalized against DMSO control (=1)
Experimental: The quantification of BAX and BCL-2 protein expression in the A2780 cell line incubated with different cobalt complexes in the A2780 cell line was determined by WB. For this, the A2780 cell line was cultivated in 25 cm^2 T-flasks at a density of 2 × 10^6 cells/mL and incubated for 24 h in the conditions described above. […] After 48 h incubation, the cells were washed and collected using cold PBS 1× and a cell scraper. The samples were centrifuged for 5 min at 700 × g and resuspended in fresh lysis buffer (150 mM NaCl, 5 mM ethylenediaminetetraacetic acid (EDTA), 50 mM Tris–HCl at pH 8.0, 2% (v/v) NP-40, 1× phosphatase inhibitors (PhosStop, Roche), 1× Protease inhibitors (complete ULTRA tablets, Mini, easypack, Roche), 1 mM phenylmethylsulfonylfuoride (PMSF) and 0.1% 1,4-dithiothreitol (v/v), DTT) and then storage at −80 °C for 2 h or until required. Cells were submitted to 5 ultrasound cycles and centrifuged at 1000 × g for 5 min. The total protein extract (supernatant) was quantified with Pierce Protein Assay Reagent (ThermoFisher Scientific) at 660 nm. […]
The membranes were incubated with WesternBright ECL subtract (Advansta) for 5 min in the dark and the film was exposed to the membranes in a dark room. […] Protein quantification was made by densitometry with ImageJ software.

Row | Structure (SMILES) | IC50 [1] [µM] | Selectivity index (SI), A2780 [1] | IC50 [2] [µM] | Selectivity index (SI), MCF-7 ([2]; IC50 fibroblasts/IC50 MCF-7, value with * calculated taking fibroblast IC50 as 100 μM (minimal value)) | BAX/BCL-2 ratio [3]
1 | Nc1cc2cccnc2c2ncccc12.O=S(=O)([O-])C(F)(F)F.O=S(=O)([O-])C(F)(F)F.[Co+3].c1cc[cH-]c1.c1ccc(P(c2ccccc2)c2ccccc2)cc1 [Complex 4, [CoCp(PPh3)(NH2phen)][(CF3SO3)2]] | 4.7 ± 0.09 | 21.3* | 10.2 ± 0.1 | 9.8* | < 1
2 | O=S(=O)([O-])C(F)(F)F.O=S(=O)([O-])C(F)(F)F.[Co+3].c1cc[cH-]c1.c1ccc(P(c2ccccc2)c2ccccc2)cc1.c1cnc2c(c1)ccc1cccnc12 [Complex 3, [Co(η^5-C5H5)(PPh3)(phen)][(CF3SO3)2]] | 6.2 ± 0.1 | 16.1* | > 50 | – | 2.8
3 | Cc1ccnc(-c2cc(C)ccn2)c1.O=S(=O)([O-])C(F)(F)F.O=S(=O)([O-])C(F)(F)F.[Co+3].c1cc[cH-]c1.c1ccc(P(c2ccccc2)c2ccccc2)cc1 [Complex 2, [Co(η^5-C5H5)(PPh3)(Me2bipy)][(CF3SO3)2]] | 6.1 ± 0.1 | 16.4* | > 50 | – | –
